In patent US11814444B2, “Cyclic polypeptides for PCSK9 inhibition” (Ra Pharmaceuticals, Inc., priority 2018, dated 2023) one finds IC50 data, which are given here for 14 compounds.

Structures are written as SMILES. Numbered stars: 1 amine (or outer) side, 2 acyl side, 3 side chain; on linkers, the order of the positions; unused ones are H or OH. Bridge positions count the residues as written; N and C are the ends. Square brackets hold non-standard residues; d marks the D form. Peptide text beside a SMILES is read from it. * marks the point of attachment. Trp(7-aza) = N[C@@H](Cc1c[nH]c2ncccc12)C(=O)O; mXylylene = c1cc(C[*:1])cc(C[*:2])c1; 4Pal = N[C@@H](Cc1ccncc1)C(=O)O; Tle = CC(C)(C)[C@H](N)C(=O)O; αMeV = CC(C)[C@](C)(N)C(=O)O; Dpg = CCCC(N)(CCC)C(=O)O; Iva = CC[C@](C)(N)C(=O)O; NMeA = CN[C@@H](C)C(=O)O; Ac5c = NC1(C(=O)O)CCCC1; Nva = CCC[C@H](N)C(=O)O; Thp = NC1(C(=O)O)CCOCC1; Ac4c = NC1(C(=O)O)CCC1; Ac3c = NC1(C(=O)O)CC1; Aib = CC(C)(N)C(=O)O; Ms = CS(=O)(=O)*; Mpa = O=C(O)CCS

The target of one experiment is PCSK9 (Homo sapiens, UniProt Q8NBP7). The experiment is described as follows: PCSK9 Alexa FRET Standard assay (displacement of AlexaFluor647 tagged cyclic peptide Reagent A). The experiment is classed as binding. As to conditions: 0.5 nM PCSK9, 20 nM AF cyclic peptide Reagent A. On the procedure:
A solution containing 1 nM biotinylated PCSK9+2.5 nM Lance Streptavidin Europium (Strep-Eu) was made in 50 mM HEPES pH 7.4, 0.15 M NaCl, 5 mM CaCl2), 0.01% BSA, and 0.01% Surfactant P20. A separate solution containing 40 nM of the AlexaFluor tagged cyclic peptide was made in the same buffer system. An Echo was used to transfer 0.750 ul of compound to an assay plate followed by the addition of 15 ul of PCSK9+Stept-Eu and 15 ul of AF peptide. The final assay volume was 30.750 ul containing 0.5 nM PCSK9, 1.25 nM Strep-Eu, and 20 nM AF cyclic peptide. The reaction was incubated at room temperature for at least two hours prior to fluorescence measurements using an Envision Multilabel Reader. IC50 values were determined by fitting data to a sigmoidal dose-response curve using nonlinear regression. Ki was then calculated from the IC50 and the KD of AF cyclic peptide. Counts (B-counts) of the europium-labeled PCSK9 were followed to observe if compounds were […]. A fall off of the B-counts likely indicated a false positive of inhibition. Data from this procedure was reported as “A=‘numerical value’ (nanomolar)”

For experiment [1], the target named is human PCSK9 / human LDLR EGFa domain interaction (Homo sapiens, UniProt Q8NBP7). The experiment is described as follows: TR-FRET assay of inhibition of the PCSK9-LDLR protein-protein interaction. The experiment is classed as binding. As to conditions: 20 nM avitag-biotinylated human PCSK9, 20 nM his-tagged human LDLR EGFa domain, 2 hours, room temperature. Summed up:
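Half-maximal inhibition was derived by 4-parameter fitting of dose-response TR-FRET data. Each well held 20 nM His-LDLR EGFa, 20 nM avitag-biotinylated PCSK9, Eu-anti-6×His and Ulight-streptavidin (5 nM each) in 50 mM HEPES, 150 mM NaCl, 5 mM CaCl2, 0.01% BSA, 0.01% Surfactant P20, incubated 2 h at room temperature.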
(In general: TR-FRET usually uses a lanthanide donor and a delayed reading to cut background.)

human PCSK9 / human LDLR EGFa domain interaction, sequence (Q8NBP7 153-692): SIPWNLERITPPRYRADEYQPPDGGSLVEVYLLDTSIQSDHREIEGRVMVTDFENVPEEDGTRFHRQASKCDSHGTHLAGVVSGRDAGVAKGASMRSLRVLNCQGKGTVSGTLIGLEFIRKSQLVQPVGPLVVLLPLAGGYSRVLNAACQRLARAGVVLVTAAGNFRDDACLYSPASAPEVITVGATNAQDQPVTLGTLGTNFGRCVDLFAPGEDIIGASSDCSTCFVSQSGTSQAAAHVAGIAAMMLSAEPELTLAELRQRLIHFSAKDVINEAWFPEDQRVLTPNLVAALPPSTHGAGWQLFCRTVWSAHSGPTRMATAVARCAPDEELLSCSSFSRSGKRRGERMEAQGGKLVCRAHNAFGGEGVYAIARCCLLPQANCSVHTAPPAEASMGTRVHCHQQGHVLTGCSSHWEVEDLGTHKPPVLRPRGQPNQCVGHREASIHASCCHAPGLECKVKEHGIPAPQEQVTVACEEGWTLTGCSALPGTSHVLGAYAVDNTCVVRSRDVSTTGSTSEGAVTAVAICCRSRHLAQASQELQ
human PCSK9 / human LDLR EGFa domain interaction, sequence (Q8NBP7 31-152 partner limits assumed): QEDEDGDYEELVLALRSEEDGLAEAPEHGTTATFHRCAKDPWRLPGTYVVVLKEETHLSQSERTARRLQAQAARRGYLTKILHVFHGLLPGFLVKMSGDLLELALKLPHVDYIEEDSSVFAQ
PCSK9, sequence (Q8NBP7 153-692): as the sequence (Q8NBP7 153-692) above

Take `CCC[C@@H]1NC(=O)[C@H](Cc2c[nH]c3ncccc23)NC(=O)[C@H]([C@@H](C)O)NC(=O)[C@H](Cc2ccncc2)NC(=O)[C@H](Cc2ccc(O)cc2)NC(=O)[C@H](C(C)(C)C)NC(=O)CCSCc2cccc(c2)CSC[C@@H](C(N)=O)NC(=O)[C@H]([C@@H](C)O)NC(=O)[C@H](CCC)NC(=O)[C@H](Cc2ccc(O)cc2)NC(=O)[C@H](CCC(=O)O)NC1=O` [Compound 112] ([Mpa][Tle]Y[4Pal]T[Trp(7-aza)][Nva]EY[Nva]TC-NH2; linker 1-12 via mXylylene): the IC50 (at PCSK9; in experiment [1]) was 0.1 to 1 µM throughout.
Regarding `CCC[C@@H]1NC(=O)[C@H](Cc2c[nH]c3ncccc23)NC(=O)[C@H]([C@@H](C)O)NC(=O)[C@@H]2CCCN2C(=O)[C@H](Cc2ccc(O)cc2)NC(=O)[C@H](C(C)(C)C)NC(=O)CCSCc2cccc(c2)CSC[C@@H](C(N)=O)NC(=O)[C@H]([C@@H](C)O)NC(=O)[C@H](CCC)NC(=O)[C@H](Cc2ccc(O)cc2)NC(=O)[C@H](CCC(=O)O)NC1=O` [Compound 155] ([Mpa][Tle]YPT[Trp(7-aza)][Nva]EY[Nva]TC-NH2; linker 1-12 via mXylylene), the IC50 (on PCSK9; in experiment [1]) was 1 to 21 µM throughout.
As to `CC(=O)N[C@H]1CSCc2cccc(c2)CSC[C@@H](C(N)=O)NC(=O)[C@H]([C@@H](C)O)NC(=O)C(C)(C)NC(=O)[C@H](Cc2ccc(O)cc2)NC(=O)[C@H](C)NC(=O)C(C)(C)NC(=O)[C@H](Cc2c[nH]c3ncccc23)NC(=O)[C@H]([C@@H](C)O)NC(=O)[C@@H]2CCCN2C(=O)[C@H](Cc2ccc(O)cc2)NC(=O)[C@H](C(C)(C)C)NC1=O` [Compound 179] (Ac-C[Tle]YPT[Trp(7-aza)][Aib]AY[Aib]TC-NH2; linker 1-12 via mXylylene), the IC50 – broadly, the concentration that inhibits the measured activity by half – on PCSK9 was 1 to 21 µM; in experiment [1], 21 to 50 µM.
On to `CC(=O)N[C@H]1CSCc2cccc(c2)CSC[C@@H](C(N)=O)NC(=O)[C@H]([C@@H](C)O)NC(=O)[C@](C)(C(C)C)NC(=O)[C@H](Cc2ccc(O)cc2)NC(=O)[C@H](C)NC(=O)C2(CCOCC2)NC(=O)[C@H](Cc2c[nH]c3ncccc23)NC(=O)[C@H]([C@@H](C)O)NC(=O)[C@@H]2CCCN2C(=O)[C@H](Cc2ccc(O)cc2)NC(=O)[C@H](C(C)(C)C)NC1=O` [Compound 181] (Ac-C[Tle]YPT[Trp(7-aza)][Thp]AY[αMeV]TC-NH2; linker 1-12 via mXylylene), for which the IC50 lay within 1 to 21 µM at PCSK9 and 21 to 50 µM in experiment [1].
On the same counts, the results for `CC[C@]1(C)NC(=O)[C@H](Cc2c[nH]c3ncccc23)NC(=O)[C@H]([C@@H](C)O)NC(=O)[C@@H]2CCCN2C(=O)[C@H](Cc2ccc(O)cc2)NC(=O)[C@H](C(C)(C)C)NC(=O)[C@@H](NC(C)=O)CSCc2cccc(c2)CSC[C@@H](C(N)=O)NC(=O)[C@H]([C@@H](C)O)NC(=O)[C@](C)(C(C)C)NC(=O)[C@H](Cc2ccc(O)cc2)NC(=O)[C@H](C)NC1=O` [Compound 182] (Ac-C[Tle]YPT[Trp(7-aza)][Iva]AY[αMeV]TC-NH2; linker 1-12 via mXylylene) are 1 to 21 µM and 21 to 50 µM.
For the compound `CC(=O)N[C@H]1CSCc2cccc(c2)CSC[C@@H](C(N)=O)NC(=O)[C@H]([C@@H](C)O)NC(=O)[C@](C)(C(C)C)NC(=O)[C@H](Cc2ccc(O)cc2)NC(=O)[C@H](C)NC(=O)C2(CCC2)NC(=O)[C@H](Cc2c[nH]c3ncccc23)NC(=O)[C@H]([C@@H](C)O)NC(=O)[C@@H]2CCCN2C(=O)[C@H](Cc2ccc(O)cc2)NC(=O)[C@H](C(C)(C)C)NC1=O` [Compound 183] (Ac-C[Tle]YPT[Trp(7-aza)][Ac4c]AY[αMeV]TC-NH2; linker 1-12 via mXylylene), the IC50 at PCSK9 was 1 to 21 µM; in experiment [1], 21 to 50 µM.
In the case of `CC(=O)N[C@H]1CSCc2cccc(c2)CSC[C@@H](C(N)=O)NC(=O)[C@H]([C@@H](C)O)NC(=O)[C@](C)(C(C)C)NC(=O)[C@H](Cc2ccc(O)cc2)NC(=O)[C@H](C)NC(=O)C2(CCCC2)NC(=O)[C@H](Cc2c[nH]c3ncccc23)NC(=O)[C@H]([C@@H](C)O)NC(=O)[C@@H]2CCCN2C(=O)[C@H](Cc2ccc(O)cc2)NC(=O)[C@H](C(C)(C)C)NC1=O` [Compound 184] (Ac-C[Tle]YPT[Trp(7-aza)][Ac5c]AY[αMeV]TC-NH2; linker 1-12 via mXylylene), the results for the IC50 (on PCSK9; in experiment [1]) were 0.001 to 0.1 µM and 0.1 to 1 µM, respectively.
As for `CC(=O)N[C@H]1CSCc2cccc(c2)CSC[C@H](C(N)=O)NC(=O)[C@H]([C@@H](C)O)NC(=O)[C@](C)(C(C)C)NC(=O)[C@H](Cc2ccc(O)cc2)NC(=O)[C@H](C)NC(=O)C2(CCC2)NC(=O)[C@H](Cc2c[nH]c3ncccc23)NC(=O)[C@H]([C@@H](C)O)NC(=O)[C@@H]2CCCN2C(=O)[C@H](Cc2ccc(O)cc2)NC(=O)[C@H](C(C)(C)C)NC1=O` [Compound 185] (Ac-C[Tle]YPT[Trp(7-aza)][Ac4c]AY[αMeV]T[dC]-NH2; linker 1-12 via mXylylene), the IC50 (at PCSK9; in experiment [1]) was 0.001 to 0.1 µM in each case.
Take `CC(=O)N[C@H]1CSCc2cccc(c2)CSC[C@H](C(N)=O)NC(=O)[C@H]([C@@H](C)O)NC(=O)[C@](C)(C(C)C)NC(=O)[C@H](Cc2ccc(O)cc2)NC(=O)[C@H](C)NC(=O)C2(CCCC2)NC(=O)[C@H](Cc2c[nH]c3ncccc23)NC(=O)[C@H]([C@@H](C)O)NC(=O)[C@@H]2CCCN2C(=O)[C@H](Cc2ccc(O)cc2)NC(=O)[C@H](C(C)(C)C)NC1=O` [Compound 186] (Ac-C[Tle]YPT[Trp(7-aza)][Ac5c]AY[αMeV]T[dC]-NH2; linker 1-12 via mXylylene): the IC50 (at PCSK9; in experiment [1]) was 0.001 to 0.1 µM each time.
Take `CCCC1(CCC)NC(=O)[C@H](Cc2c[nH]c3ncccc23)NC(=O)[C@H]([C@@H](C)O)NC(=O)[C@@H]2CCCN2C(=O)[C@H](Cc2ccc(O)cc2)NC(=O)[C@H](C(C)(C)C)NC(=O)[C@@H](NC(C)=O)CSCc2cccc(c2)CSC[C@H](C(N)=O)NC(=O)[C@H]([C@@H](C)O)NC(=O)[C@](C)(C(C)C)NC(=O)[C@H](Cc2ccc(O)cc2)NC(=O)[C@H](C)NC1=O` [Compound 188] (Ac-C[Tle]YPT[Trp(7-aza)][Dpg]AY[αMeV]T[dC]-NH2; linker 1-12 via mXylylene): the IC50 (on PCSK9; in experiment [1]) was 1 to 21 µM throughout.
Regarding `CNC(=O)[C@H]1CSCc2cccc(c2)CSC[C@H](NC(C)=O)C(=O)N[C@@H](C(C)(C)C)C(=O)N[C@@H](Cc2ccc(O)cc2)C(=O)N2CCC[C@H]2C(=O)N[C@@H]([C@@H](C)O)C(=O)N[C@@H](Cc2c[nH]c3ncccc23)C(=O)NC(C)(C)C(=O)N[C@@H](C)C(=O)N[C@@H](Cc2ccc(O)cc2)C(=O)N[C@@](C)(C(C)C)C(=O)N[C@@H]([C@@H](C)O)C(=O)N1` [Compound 189] (Ac-C[Tle]YPT[Trp(7-aza)][Aib]AY[αMeV]T[dC]-NHMe; linker 1-12 via mXylylene), the IC50 on PCSK9 was 1 to 21 µM; in experiment [1], 21 to 50 µM.
On the same counts, the results for `CC(=O)N[C@H]1CSCc2cccc(c2)CSC[C@H](C(N)=O)NC(=O)[C@H]([C@@H](C)O)NC(=O)[C@](C)(C(C)C)NC(=O)[C@H](Cc2ccc(O)cc2)NC(=O)[C@H](C)NC(=O)C2(CC2)NC(=O)[C@H](Cc2c[nH]c3ncccc23)NC(=O)[C@H]([C@@H](C)O)NC(=O)[C@@H]2CCCN2C(=O)[C@H](Cc2ccc(O)cc2)NC(=O)[C@H](C(C)(C)C)NC1=O` [Compound 191] (Ac-C[Tle]YPT[Trp(7-aza)][Ac3c]AY[αMeV]T[dC]-NH2; linker 1-12 via mXylylene) are 0.001 to 0.1 µM and 0.001 to 0.1 µM.
In the same order, the values of `CC(C)[C@]1(C)NC(=O)[C@H](Cc2ccc(O)cc2)NC(=O)[C@H](C)NC(=O)C2(CCC2)NC(=O)[C@H](Cc2c[nH]c3ncccc23)NC(=O)[C@H]([C@@H](C)O)NC(=O)[C@@H]2CCCN2C(=O)[C@H](Cc2ccc(O)cc2)NC(=O)[C@H](C(C)(C)C)NC(=O)[C@@H](NS(C)(=O)=O)CSCc2cccc(c2)CSC[C@H](C(N)=O)NC(=O)[C@H]([C@@H](C)O)NC1=O` [Compound 192] (Ms-C[Tle]YPT[Trp(7-aza)][Ac4c]AY[αMeV]T[dC]-NH2; linker 1-12 via mXylylene) are 0.001 to 0.1 µM and 0.001 to 0.1 µM.
In the same order, the values of `CCC[C@@H]1NC(=O)[C@H](Cc2ccc(O)cc2)NC(=O)[C@H](CCC(=O)O)NC(=O)[C@H](C)N(C)C(=O)[C@H](Cc2c[nH]c3ncccc23)NC(=O)[C@H]([C@@H](C)O)NC(=O)[C@H](Cc2c[nH]cn2)NC(=O)[C@H](Cc2ccc(O)cc2)NC(=O)[C@H](C(C)(C)C)NC(=O)CCSCc2cccc(c2)CSC[C@@H](C(N)=O)NC(=O)[C@H]([C@@H](C)O)NC1=O` [Compound 207] ([Mpa][Tle]YHT[Trp(7-aza)][NMeA]EY[Nva]TC-NH2; linker 1-12 via mXylylene) are 50 to 100 µM and 50 to 100 µM.
